Measurements: patent US7892350B2, “Sacrificial agents for fly ash concrete” (Boral Material Technologies Inc., priority 2003, dated 2011)
Several values for one entry are separate records, joined by “and”; a condition that tells them apart may be missing. Equal entries are not always repeated.

Legend:
[1] = Adsorption/precipitation of SA or AEA in 10 wt % aqueous fly ash or cement slurries at pH 12.5; type: physicochemical; conditions: initial SA 3 mM
[2] = Precipitation in slurry extract or leachate; type: physicochemical; conditions: pH 12.5, entries in parentheses
[3] = Paste air entrainment, Minimum air protocol
In short: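 Pastes of 400 g cementitious powder were hand-mixed 1 min, then machine-stirred 2 min at 25° C with the mixer 1.0 inch off the bottom and a 1.0 inch stroke. Water was set for a 115±5 mm mini-slump spread without additives. Air content came from the mass of a filled cylinder at 6, 36 and 66 min, with 1 min hand stirring before each reading.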

[4] = Paste air entrainment, Maximum air protocol; conditions: for Air entrained at 66 min: Air 30 (0.0125 wt %)/X/ButOH=1/4/4, X = the labelled sulfonated SA
In short: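 Pastes of 400 g cementitious powder in water plus additives, hand-mixed 1 min then mixer-stirred 2 min at 25 °C; water/binder ratio set so additive-free paste gives 115±5 mm mini-slump spread at 10 min. Air content calculated from mass of paste filling a fixed-volume cylinder at 6, 36 and 66 min, paste at rest between readings and hand-stirred 1 min beforehand.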

[5] = Air entrainment in fresh concrete (ASTM C 231-97); conditions: for Air: PCC cement concrete, no fly ash, no Air 40
Description: The sacrificial agents were added to the cementitious mixtures in several ways: • 1) mixing together with water and air entrainment agent solution • 2) premixed with the fly ash • 3) post-added into the fresh concrete which already contained the air entrainment agent.

Sodium Di-isopropopyl naphthalene sulfonate [ND]
Adsorption (wt % Adsorbed) ([1]; 10 wt % fly ash B1 (LOI 4.36%) slurry, Air 30/Air 40 0.105 wt %): 14 wt % | Adsorption (wt % Adsorbed) ([1]; 10 wt % fly ash C1, class C (LOI 1.62%) slurry, Air 30/Air 40 0.105 wt %): 84 wt % | Adsorption (wt % Adsorbed) ([1]; 10 wt % fly ash C2 (LOI 3.32%) slurry): 17 wt % | Adsorption (wt % Adsorbed) ([1]; 10 wt % fly ash M1 (LOI […]) slurry, Air 30/Air 40 0.105 wt %): 27 wt % | Adsorption (wt % Adsorbed) ([1]; 10 wt % fly ash M2 (LOI 5.34%) slurry, Air 30/Air 40 0.105 wt %): 13 wt % | Adsorption (wt % Adsorbed) ([1]; 10 wt % fly ash M3 (LOI 11.33%) slurry, Air 30/Air 40 0.105 wt %): 18 wt % | Adsorption (wt % Adsorbed) ([1]; 10 wt % fly ash N (LOI 0.30%) slurry): 26 wt % | Precipitation (wt % precipitated) ([2]; solution extracted from 10 wt % fly ash B1 (LOI 4.36%) slurry): 0 wt % | Precipitation (wt % precipitated) ([2]; solution extracted from 10 wt % fly ash C1, class C (LOI 1.62%) slurry): 31 wt % | Precipitation (wt % precipitated) ([2]; solution extracted from 10 wt % fly ash C2 (LOI 3.32%) slurry): 0 wt % | Precipitation (wt % precipitated) ([2]; solution extracted from 10 wt % fly ash M1 (LOI […]) slurry): 0 wt % | Precipitation (wt % precipitated) ([2]; solution extracted from 10 wt % fly ash M2 (LOI 5.34%) slurry): 0 wt % | Precipitation (wt % precipitated) ([2]; solution extracted from 10 wt % fly ash M3 (LOI 11.33%) slurry): 0 wt % | Precipitation (wt % precipitated) ([2]; solution extracted from 10 wt % fly ash N (LOI 0.30%) slurry): 0 wt % | Air entrained ([3]; 50:50 fly ash B1 (LOI 4.36%):PCA paste, 0.1 wt % Air 30 alone or with 0.05 wt % of the SA): 4 vol % | Air entrained ([3]; 50:50 fly ash C1 (LOI 1.62%):PCA paste, 0.1 wt % Air 30 alone or with 0.05 wt % of the SA): 4 vol % | Air entrained ([3]; 50:50 fly ash D (LOI […]):PCA paste, 0.1 wt % Air 30 alone or with 0.05 wt % of the SA): 3 vol % | Air entrained ([3]; 50:50 fly ash M1 (LOI […]):PCA paste, 0.1 wt % Air 30 alone or with 0.05 wt % of the SA): 5 vol % | Air entrained ([3]; 50:50 fly ash M2 (LOI 5.34%):PCA paste, 0.1 wt % Air 30 alone or with 0.05 wt % of the SA): 4 vol % | Air entrained ([3]; 50:50 fly ash M3 (LOI 11.33%):PCA paste, 0.1 wt % Air 30 alone or with 0.05 wt % of the SA): 4 vol % | Air entrained ([3]; 50:50 fly ash R (LOI […]):PCA paste, 0.1 wt % Air 30 alone or with 0.05 wt % of the SA): 3 vol % | Air entrained ([3]; PCA cement paste, 0.1% SA or AEA alone, Minimum air protocol): 3 vol % | Average of air entrained ([3]; over the fly ash:PCA pastes of Table 7, 0.1 wt % Air 30 alone or with 0.05 wt % of the SA): 4% | Air entrained at 66 min ([4]; 50:50 fly ash B1 (LOI 4.36%):PCA paste): 17 vol % | Air entrained at 66 min ([4]; 50:50 fly ash D (LOI […]):PCA paste): 24 vol % | Air entrained at 66 min ([4]; 50:50 fly ash M2 (LOI 5.34%):PCA paste): 11 vol % | Air entrained ([4]; PCA cement paste, 0.0125% SA or AEA alone, Maximum air protocol): 7 vol % | Air entrained at 66 min ([4]; PCA paste, no fly ash): 23 vol % | air entrained (average) ([4]; fly ash:cement pastes, SA added at four (4) times the fixed Air 30 dosage (0.0125%)): 14% | Air ([5]; ND alone 0.001 % CM): 2.3% | Air ([5]; ND alone 0.003 % CM): 4.1% and 3.1% | Air ([5]; ND alone 0.005 % CM): 4.6% and 4.8% | Air ([5]; ND alone 0.010 % CM): 4.6% | Air ([5]; ND alone 0.020 % CM): 3.9% | Air ([5]; ND alone 0.030 % CM): 3.8% | Air ([5]; ND alone 0.040 % CM): 3.9% | increase in air entrained above the control values ([5]; cement-only concrete without air entrainment agents, various dosages): 2-3%
